# Laboratory results reported in US20250304549A1, “HYDROXYAMIDE DERIVATIVE AND USE THEREOF” (SICHUAN HUIYU PHARMACEUTICAL CO., LTD., priority 2022, published 2025).
# Structures can show the parent of a compound that is named as a salt.
# Assays:
# NCI-H69 cells = assay: In vitro cell inhibition assay - NCI-H69 cell proliferation (CellTiter-Glo); assay type: cell-based; settings: Homo sapiens, NCI-H69, H69 small cell lung cancer cell proliferation
# Description: 4. In Vitro Cell Inhibition Assay—NCI-H69 Cell Proliferation
# The inhibitory effect of the compounds on cell proliferation was assessed by detecting the number of viable cells using the CellTiter-Glo® reagent. NCI-H69 cells in the logarithmic growth phase were collected and inoculated into transparent bottom 96-well plates at a density 1×10^3 cells per well with 100 μL medium, and incubated at 37° C., 5% CO2 overnight. The compounds were sequentially diluted in a 5-fold concentration gradient with DMSO to obtain 8 different concentrations These were then diluted with RPMI-640 (containing 20% FBS) cell culture medium to obtain the compounds working solution (2×), which was added to the cell supernatant at 100 μL per well. The incubation continued for 7 days at 37° C., 5% CO2. The plate was then removed and equilibrated to room temperature (25° C.) along with the CellTiter-Glo® mixing reagent for 10-30 minutes. After centrifugation at 1200 rpm for 5 minutes, 120 μL of the culture medium was carefully aspirated from each well, and 60 μL of CellTiter-Glo® reagent was added. The cells were thoroughly mixed with the CellTiter-Glo® mixing reagent using a microplate shaker for 2 min. and then incubated at room temperature for 10 min. The 96-well plate was subsequently placed on a multifunctional microplate reader to record the Luminescence values (RLU).
# The inhibition rate was calculated using the following formula: […]
# (§1) Note: ‘Negative’ refers to the group without inhibitors; ‘Blank’ refers to the group without cells.
# (§2) The IC50 value was determined by fitting the inhibition rate by GraphPad Prism software.
# NCI-H1417 cells = assay: In vitro cell inhibition assay - H1417 cell proliferation (CellTiter-Glo); assay type: cell-based; settings: Homo sapiens, NCI-H1417, H1417 small cell lung cancer cell proliferation
# Description: 3. In Vitro Cell Inhibition Assay—H1417 Cell Proliferation
# The inhibitory effect of the compounds on cell proliferation was assessed by detecting the number of viable cells using the CellTiter-Glo® reagent. […] The compounds were sequentially diluted in a 5-fold concentration gradient with DMSO to obtain 8 different concentrations o. These were diluted with BEGM (containing 10% FBS) cell culture medium to obtain the compound working solution (2×), which was added to the cell supernatant at 100 μL per well. The incubation continued for 7 days at 37° C., 5% CO2. The plate was then removed and equilibrated to room temperature (25° C.) along with the CellTiter-Glo® mixing reagent for 10-30 minutes. After centrifugation, 100 μL of the culture medium was carefully aspirated from each well, and 85 μL of CellTiter-Glo® reagent was added. The cells were thoroughly mixed with the CellTiter-Glo® mixing reagent using a microplate shaker for 2 min. and then incubated at room temperature for 10 min. The 96-well plate was subsequently placed on a multifunctional microplate reader to record the Luminescence values (RLU). • The inhibition rate was calculated using the following formula: […]
# as §1, §2
# pan-HDAC = assay: In vitro enzyme inhibition assay - HDAC (HDAC-Glo I/II), pan-HDAC; assay type: biochemical
# Description: 2. In Vitro Enzyme Inhibition Assay—HDAC
# The effect of the compound on the enzymatic activity of pan-HDAC and two isoforms (HDAC1 and HDAC8) was examined using the HDAC-Glo I/II Assay and Screening System assay to assess the level of inhibition of HDAC protease activity and selectivity in each isoform. The proteins and detection reagents were from the HDAC-Glo™ I/II Assay and Screening System (Promega). A 1 mM stock solution of the compound was prepared in DMSO and diluted in a 5-fold gradient to create a series of 8 concentrations, and a specific volume of the highest concentration was diluted 25 times with HDAC Buffer to obtain 4× working solution of the compound. […] The 384-well plate was then read on a multifunctional microplate reader, with the Luminescence channel selected to record Luminescence values (RLU). The inhibition rate was calculated using the following formula: […]
# (§3) Note: ‘Negative’ refers to the group without the inhibitor; ‘Blank’ refers to the group without the enzyme.
# (§4) The IC50 value was calculated by fitting the inhibition rate by GraphPad Prism software, employing log (inhibitor) vs. response-Variable Slope (four parameters) model.
# LSD1 = LSD1 (Homo sapiens (Human), UniProt O60341); assay: In vitro enzyme inhibition assay - LSD1 (HTRF); assay type: biochemical
# Description: 1. In Vitro Enzyme Inhibition Assay—LSD1
# Initially, a master solution of 90 μM test compound (dissolved in DMSO) was prepared and sequentially diluted with DMSO in a 5-fold concentration gradient to yield a total of 9 concentrations of the compound working solution 1 (90×). Subsequently these 9 concentrations of working solution 1 were sequentially diluted by a 30-fold concentration gradient, i.e., 2 μL of working solution 1 was aspirated and added to 58 μL of Buffer, mixed on a vortex mixer with sufficient shaking to yield 9 concentrations of the screening test compound working solution 2 (3×). […] The mixture was incubated at room temperature for 15 minutes. […] Afterward, 2 μL of a termination solution (containing 5.4 mM 2-PCPA) was added to each well, mixed evenly, and incubated for another 15 minutes. Finally 4 μL of a pre-mixed antibody solution of Eu-anti H3K4 (PerkinElmer, TRF0404-D) and allophycocyanin (Prozyme, PJ27S) (1:1) was added to each well, mixed evenly, and incubated for 60 minutes. […] The inhibition rate was calculated through the following formula: […]
# as §3, §4
SMILES,IC50 (NCI-H69 cells),IC50 (NCI-H1417 cells),IC50 (pan-HDAC),IC50 (LSD1)
"COc1ccc(-c2cnc(N3CCC(NCc4ccc(/C=C/C(=O)NO)cc4)CC3)c(C#N)c2-c2cnc(C#N)cn2)cc1O [Example 256, (E)-3-(4-(((1-(3-Cyano-4-(5-cyanopyrazin-2-yl)-5-(3-hydroxy-4-methoxyphenyl)pyridin-2-yl)piperidin-4-yl)amino)methyl)phenyl)-N-hydroxyacrylamide formate]",8.63 nM,8.48 nM,0.26 nM,28.8 nM
"COc1ccc(-c2cnc(N3CCC(NCc4ccc(/C=C(\C)C(=O)NO)nc4)CC3)c(C#N)c2-c2ccc(C#N)c(F)c2)cc1O [Example 220, (E)-3-(5-(((1-(3-Cyano-4-(4-cyano-3-fluorophenyl)-5-(3-hydroxy-4-methoxyphenyl)pyridin-2-yl)piperidin-4-yl)amino)methyl)pyridin-2-yl)-N-hydroxy-2-methylacrylamide formate]",2290 nM,6.86 nM,937 nM,0.42 nM
"COc1ccc(-c2cnc(N3CCC(NCc4ccc(/C=C/C(=O)NO)cc4F)CC3)c(C#N)c2-c2ccc(C#N)nc2)cc1O [Example 252, (E)-3-(4-(((1-(3′,6-Dicyano-5′-(3-hydroxy-4-methoxyphenyl)-[3,4′-bipyridin]-2′-yl)piperidin-4-yl)amino)methyl)-3-fluorophenyl)-N-hydroxyacrylamide formate]",4.32 nM,1.86 nM,1.03 nM,3.24 nM
"Cc1noc2cc(-c3cnc(N4CCC(NCc5ccc(/C=C/C(=O)NO)cn5)CC4)c(C#N)c3-c3ccc(C#N)c(F)c3)c(F)cc12 [Example 236, (E)-3-(6-(((1-(3-Cyano-4-(4-cyano-3-fluorophenyl)-5-(5-fluoro-3-methylbenzo[d]isoxazol-6-yl)pyridin-2-yl)piperidin-4-yl)amino)methyl)pyridin-3-yl)-N-hydroxyacrylamide formate]",410 nM,6.02 nM,37 nM,0.59 nM
"COc1ccc(-c2cnc(N3CCC(NCc4ccc(SCC(=O)NO)cc4)CC3)c(C#N)c2-c2ccc(C#N)c(F)c2)cc1O [Example 216, 2-((4-((1-(3-cyano-4-(4-cyano-3-fluorophenyl)-5-(3-hydroxy-4-methoxyphenyl)pyridin-2-yl)piperidin-4-yl)amino)methyl)phenyl) thio)-N-hydroxyacetamide formate]",51.6 nM,6.06 nM,3.57 nM,0.15 nM
"CC1(NCc2ccc(/C=C/C(=O)NO)cc2)CCN(c2ncc(-c3ccc(OCC4(O)CC4)c(O)c3)c(-c3ccc(C#N)c(F)c3)c2C#N)CC1 [Example 229, (E)-3-(4-(1-(3-cyano-4-(4-cyano-3-fluorophenyl)-5-(3-hydroxy-4-((1-hydroxycyclopropyl)methoxy)phenyl)pyridin-2-yl)-4-methylpiperidin-4-yl)amino)methyl) phenyl)-N-hydroxyacrylamide formate]",529 nM,9.36 nM,30.8 nM,0.88 nM
"CC1(NCc2ccc(/C=C/C(=O)NO)cc2)CCN(c2ncc(-c3ccc(OC(F)(F)F)c(O)c3)c(-c3ccc(C#N)c(F)c3)c2C#N)CC1 [Example 214, (E)-3-(4-(((1-(3-Cyano-4-(4-cyano-3-fluorophenyl)-5-(3-hydroxy-4-(trifluoromethoxy)phenyl)pyridin-2-yl)-4-methylpiperidin-4-yl)amino)methyl)phenyl)-N-hydroxyacrylamide formate]",496 nM,7.9 nM,143 nM,4.98 nM
"COc1ccc(-c2cnc(N3CCC(NCc4ccc(/C=C/C(=O)NO)cc4)CC3)c(C#N)c2-c2cnc(C#N)nc2)cc1O [Example 250, E)-3-(4-(((1-(3-Cyano-4-(2-cyanopyrimidin-5-yl)-5-(3-hydroxy-4-methoxyphenyl)pyridin-2-yl)piperidin-4-yl)amino)methyl) phenyl)-N-hydroxyacrylamide formate]",1.93 nM,2.42 nM,1.08 nM,17 nM

# The remaining lines, values ahead:
IC50 (NCI-H69 cells),IC50 (NCI-H1417 cells),IC50 (pan-HDAC),IC50 (LSD1),SMILES
3.24 nM,4.88 nM,0.32 nM,24.8 nM,"COc1cc(F)c(-c2cnc(N3CCC(NCc4ccc(/C=C/C(=O)NO)cc4)CC3)c(F)c2-c2ccc(C#N)nc2)cc1O [Example 270, (E)-3-(4-(((1-(6-Cyano-3′-fluoro-5′-(2-fluoro-5-hydroxy-4-methoxyphenyl)-[3,4′-bipyridin]-2′-yl)piperidin-4-yl)amino)methyl)phenyl)-N-hydroxyacrylamide formate]"
7.48 nM,7.2 nM,0.25 nM,81.2 nM,"COc1ccc(-c2cnc(N3CCC(NCc4ccc(/C=C/C(=O)NO)cc4)CC3)c(C#N)c2-c2ccc(C(N)=O)nc2)cc1O [Example 259, (E)-3′-Cyano-5′-(3-hydroxy-4-methoxyphenyl)-2′-(4-((4-(3-(hydroxyamino)-3-oxoprop-1-en-1-yl)benzyl)amino)piperidin-1-yl)-[3,4′-bipyridine]-6-carboxamide formate]"
11.2 nM,7.61 nM,0.59 nM,7.93 nM,"COc1ccc(-c2cnc(N3CCC(NCc4ccc(/C=C/C(=O)NO)c(OC)c4)CC3)c(C#N)c2-c2ccc(C#N)nc2)cc1O [Example 257, (E)-3-(4-(((1-(3′,6-Dicyano-5′-(3-hydroxy-4-methoxyphenyl)-[3,4′-bipyridin]-2′-yl)piperidin-4-yl)amino)methyl)-2-methoxyphenyl)-N-hydroxyacrylamide formate]"
1.8 nM,2.19 nM,0.83 nM,35.1 nM,"COc1ccc(-c2cnc(N3CCC(NCc4ccc(/C=C(\F)C(=O)NO)cc4)CC3)c(F)c2-c2ccc(C#N)nc2)cc1O [Example 271, (Z)-3-(4-(((1-(6-Cyano-3′-fluoro-5′-(3-hydroxy-4-methoxyphenyl)-[3,4′-bipyridin]-2′-yl)piperidin-4-yl)amino)methyl)phenyl-2-fluoro-N-hydroxyacrylamide formate]"
13.6 nM,7.49 nM,1.93 nM,7.36 nM,"COc1ccc(-c2ccc(N3CCC(NCc4ccc(/C=C/C(=O)NO)cc4)CC3)c(C#N)c2-c2ccc(C#N)nc2)cc1O [Example 267, (E)-3-(4-(((1-(3-Cyano-2-(6-cyanopyridin-3-yl)-3′-hydroxy-4′-methoxy-[1,l′-biphenyl]-4-yl)piperidin-4-yl)amino)methyl)phenyl)-N-hydroxyacrylamide formate]"
8.47 nM,19 nM,1.42 nM,3.18 nM,"COc1ccc(-c2cnc(N3CCC(NCc4ccc(/C=C/C(=O)NO)cc4)CC3)c(CC#N)c2-c2ccc(C#N)nc2)cc1O [Example 261, (E)-3-(4-(((1-(6-Cyano-3′-(cyanomethyl)-5′-(3-hydroxy-4-methoxyphenyl)-[3,4′-bipyridin]-2′-yl)piperidin-4-yl)amino)methyl)phenyl)-N-hydroxyacrylamide formate]"
